Like-named read-outs stand apart in the source and are kept apart here.
Tests used:
VDAC1 = experiment: VDAC-1 immunostaining of liver sections; assay type: in vivo, mouse; details: HFD+NCT vs HFD
Experimental: Frozen liver sections were permeabilized using 0.3% Triton-X and incubated in antigen retrieval solution (Antigen retrieval citrate, Biogenex) at sub-boiling temperature for 10 min. Subsequently, sections were incubated with blocking buffer containing 5% normal donkey serum (Jackson Immuno Research) followed by incubation overnight at 4° C. with mouse anti-HNF4α monoclonal antibody (1:800, Cat #PP-H1415-00, R&D Systems), rabbit polyclonal anti-VDAC antibody (1:400, cat #PA1-954A, Invitrogen) and cleaved caspase3 antibody (1:500, cat #9664, Cell Signaling). Sections were washed and incubated for 1 hour at room temperature with anti-mouse secondary antibody coupled with Alexa fluor 488 (1:400, Invitrogen) and antirabbit secondary antibody coupled with rhodamine red. Nuclei were visualized by counterstaining with DAPI (40,6-diamidino-2-phenylindole, Sigma Aldrich). Slides were mounted using fluorescence mounting medium and images were obtained at 40× magnification using an Olympus IX71 fluorescence microscope. Fluorescence intensity of HNF4α-stained nuclei and VDAC stained mitochondria was calculated using MetaMorph TL software (version 7.6.5.0, Olympus). Fold change was calculated by normalizing to values from mice fed NC.

cytochrome C = experiment: Western blot, mouse liver, cytochrome C; assay type: in vivo; details: HFD+NCT vs HFD
Experimental: (§1) Mouse liver extracts were prepared by incubation in RIPA buffer (Invitrogen) containing protease inhibitors (Calbiochem, San Diego, CA). Protein was quantified by BCA assay (Thermo Scientific). Protein ([…] for cytochrome C) was separated on 12% or 16% Tri-Glycine gels (Invitrogen) and transferred to Immobilon P membrane (0.2 μm pore size, Millipore). After 1 hour in phosphate-buffered saline-Tween (PBST) with 3% milk, membranes were incubated with antibodies to PPARGC1A(PGC1α) (Cat #NBP1-04676, Novus, 1:1000), SDHA XP (Cat #11998, Cell Signaling 1:1000), or Cytochrome C (Cat #4280, Cell Signaling 1:500), followed by secondary antibody conjugated to horseradish peroxidase (1:5000, Jackson Immune or Cell Signaling). […] After detection, membrane was incubated with Ponceau S solution (Sigma) for 1 hr for normalization to loaded protein.

[1] = test system: succinate dehydrogenase (SDHA); experiment: Western blot, mouse liver, SDHA; assay type: in vivo; details: HFD+NCT vs HFD
Experimental: as §1

PPARγ mRNA = experiment: qPCR mouse liver, PPARγ mRNA; assay type: in vivo; details: HFD+NCT vs HFD; to the level of normal chow
Experimental: (§2) Total RNA was isolated from liver tissues and primary human hepatocytes using Trizol (Invitrogen). cDNA was amplified using 3 μg of total RNA using qScript cDNA SuperMix (Quanta BioSciences, Beverly, MA, USA). Quantitative real time PCR (RT-PCR) analysis was performed using SYBR® Select Master Mix (Applied Biosystems) and an ABI 7900HT thermal cycler (Applied Biosystems, Thermo Fisher Scientific). Ct values were normalized to 18s rRNA and are expressed as fold change over samples from mice fed NC or cultured human hepatocytes without NCT.

Sirt1 mRNA = experiment: qPCR mouse liver, Sirtuin1 mRNA; assay type: in vivo; details: HFD+NCT vs HFD
Experimental: as §2

SDHA mRNA = experiment: qPCR primary human hepatocytes, SDHA mRNA; assay type: cell-based; details: NCT 5, 15, 40 μM
Experimental: Experiments with primary human hepatocytes were performed by CN-Bio (Cambridge, UK). Briefly, primary human hepatocytes (PHHs), human Kupffer cells (HKs) and human stellate cells (HSCs) were seeded onto CN-Bio's PhysioMimix LC12 MPS culture plates at 6×10^5 cells for PHHs and 6×10^4 cells for HKs and HSCs in 1.6 ml of CN-Bio's HEP-lean media with 5% FCS. Throughout the experiment the cells were maintained at a flow rate of 1 μl/s. After 24 hours (Day 1) of seeding, the media was changed to HEP-lean media and the cells were incubated until day 4 to allow the cells to form microtissues. At day 4 post seeding, media was changed to HEP-fat media and treated with DMSO or NCT (5, 15, 40 μM). Media was replaced on days 6 and 8. Cells were harvested on day 10 for RNA extraction and culture media was collected for ELISA analysis.
as §2

PPARGC1A (PGC1α) mRNA = experiment: RNA-seq of livers of mice treated for 2 weeks with NCT; assay type: in vivo, mouse; details: livers of mice treated for 2 weeks (GEO 174848)
From the text: The ability of NCT to increase mitochondrial mass raised the question of the mechanism by which that occurred. […] PPARGC1A plays an important role in mitochondrial biogenesis but is not known to be regulated by HNF4α. […]

HNF4α = target: T1, HNF4α (Homo sapiens, UniProt P41235); experiment: Cell-based human insulin promoter reporter assay sensitive to HNF4α activity
T1 sequence (P41235 1-474): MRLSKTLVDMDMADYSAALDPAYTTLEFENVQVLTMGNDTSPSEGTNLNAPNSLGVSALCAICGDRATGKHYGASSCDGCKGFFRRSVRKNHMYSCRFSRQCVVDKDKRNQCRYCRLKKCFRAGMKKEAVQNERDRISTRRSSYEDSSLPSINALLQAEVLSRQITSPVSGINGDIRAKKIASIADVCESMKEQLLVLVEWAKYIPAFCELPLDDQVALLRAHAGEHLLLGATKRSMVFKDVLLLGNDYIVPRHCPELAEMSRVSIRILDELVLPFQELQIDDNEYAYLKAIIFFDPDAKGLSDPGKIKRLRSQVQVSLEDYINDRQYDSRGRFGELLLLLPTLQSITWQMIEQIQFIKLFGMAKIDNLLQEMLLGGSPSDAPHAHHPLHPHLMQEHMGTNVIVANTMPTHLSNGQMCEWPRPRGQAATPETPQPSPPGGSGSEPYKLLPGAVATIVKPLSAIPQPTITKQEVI
From the text: HNF4α is a nuclear receptor transcription factor that controls the expression of downstream genes that are important in multiple aspects of cellular metabolism. The classical view of HNF4α has been that its ligand binding pocket (LBP) is constitutively occupied by a fatty acid that plays a structural rather than regulatory role. However, it has been shown recently that the fatty acids in the HNF4α LBP are exchangeable in the context of full length HNF4α, particularly inside the cell. […] Using the assay in high-throughput screening, it was discovered HNF4α antagonists and more recently agonists. […] Previously, it was shown that intraperitoneal (IP) administration of NCT reversed hepatic steatosis in obese mice fed a high fat diet through a previously unsuspected pathway involving regulation by HNF4α of dihydroceramide synthesis.

[2] = previous two-week IP administration, obese mice; cited from earlier work

## O=C(/C=C/c1ccc(O)c(O)c1)NCCc1ccc(O)cc1 [NCT, N-transcaffeoyltyramine]
VDAC1
  VDAC1 expression (HFD-induced decrease): substantial reversal
Cytochrome C
  hepatic cytochrome C protein level (HFD-induced decrease): reversed
[1]
  hepatic succinate dehydrogenase protein level (HFD-induced decrease): reversed
PPARγ mRNA
  PPARγ expression in mouse liver: dramatically reduced
Sirt1 mRNA
  Sirt1 mRNA in mouse liver (effect of HFD): almost completely reversed
SDHA mRNA
  SDHA mRNA in primary human hepatocytes: increased
PPARGC1A (PGC1α) mRNA
  increase in PPARGC1A (PGC1α) mRNA: approximately 6 fold
HNF4α
  HNF4α agonist activity: strong HNF4α agonists
HNF4α; listed as N-trans caffeoyltyramine
  HNF4α agonist activity: potent agonist
[2]
  body weight: no effect on body weight
  hepatic steatosis: decreased hepatic steatosis

Source: US20240374546A1, “USES AND METHODS FOR PROMOTING INCREASED MITOCHONDRIAL MASS AND FUNCTION” (Brightseed, Inc., priority 2022, published 2024)
